Measured values reported in publication PMC8847575, “HSL1 and BAM1/2 impact epidermal cell development by sensing distinct signaling peptides” (Nature Communications, 2022).
“And” between values parts separate entries of the source, which are not always exact repeats. Equal entries are not always repeated. Where two headings read alike, the source gives them in different places. Square brackets hold non-standard residues; d marks the D form. Peptide text beside a SMILES is read from it. Hyp = O=C(O)[C@@H]1C[C@@H](O)CN1

Experiments:
BAM1 LRR ectodomain = biological target: T1, BAM1 LRR ectodomain (Arabidopsis thaliana, UniProt O49545); test: ITC, peptide titrated into BAM1 ectodomain; format: binding; details: ITC, 25 °C, mean ± SD of at least two independent experiments; for ΔH, peptide vs BAM1: peptide into BAM1 ectodomain, pH 5.0; for Kd (dissociation constant), peptide vs BAM1: peptide into BAM1 ectodomain (cell), 20 mM sodium citrate pH 5.0, 150 mM NaCl, N fitted to 1, n.d = no binding detected
T1 construct: BAM1 (residues 20–637, AT5G65700); azurocidin or Drosophila BIP signal peptide (secretion signal) (N); made in house; host or cells: Trichoplusia ni Tnao38 insect cells (baculovirus)
T1 sequence (O49545 20-637): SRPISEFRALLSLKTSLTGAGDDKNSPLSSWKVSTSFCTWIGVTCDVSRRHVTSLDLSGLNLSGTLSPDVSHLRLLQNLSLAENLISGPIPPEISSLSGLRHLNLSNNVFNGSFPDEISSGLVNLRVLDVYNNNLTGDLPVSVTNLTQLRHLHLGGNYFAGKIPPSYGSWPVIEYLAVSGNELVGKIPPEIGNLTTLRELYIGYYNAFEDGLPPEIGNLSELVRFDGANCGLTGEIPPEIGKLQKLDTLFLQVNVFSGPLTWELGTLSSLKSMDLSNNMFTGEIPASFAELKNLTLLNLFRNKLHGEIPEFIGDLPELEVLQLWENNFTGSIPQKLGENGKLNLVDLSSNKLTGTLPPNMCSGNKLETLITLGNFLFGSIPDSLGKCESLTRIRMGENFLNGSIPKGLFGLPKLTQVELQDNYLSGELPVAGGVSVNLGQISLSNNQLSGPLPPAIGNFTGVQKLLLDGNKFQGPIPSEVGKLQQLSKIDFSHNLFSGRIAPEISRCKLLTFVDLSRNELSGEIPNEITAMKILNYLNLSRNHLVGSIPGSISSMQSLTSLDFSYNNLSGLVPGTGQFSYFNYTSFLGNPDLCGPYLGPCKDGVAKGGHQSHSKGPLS
Description: All genes used for protein expression in Trichoplusia ni Tnao38 cells[46] were codon optimized and cloned into a modified pFastBac vector (Geneva Biotech) providing an azurocidin[47] or Drosophila BIP signal peptide, a TEV (tobacco etch virus protease) cleavage site and a Strep-9xHis tandem affinity tag at their carboxy terminus. The genes used are coding for the Arabidopsis ectodomains of HSL1 (residues 17-618, AT1G28440), HAE (residues 20-620, AT4G28490) SERK1 (residues 24–213, AT1G71830), and BAM1 (residues 20–637, AT5G65700). To perform Grating-coupled interferometry (GCI) experiments, HSL1 was fused to a non-cleavable Avi-tag[49],[50]. Baculovirus generation was carried out in DH10 cells and virus amplification was done in Spodoptera frugiperda Sf9 cells. For protein expression, Trichoplusia ni Tnao38 cells were infected with HAE, HSL1, BAM1 and SERK1 virus with a multiplicity of infection (MOI) of 3. The cells were grown 1 day at 28 °C and two days at 22 °C at 110 rpm. After every expression round, secretion of our proteins was detected using an anti-His-HRP conjugated antibody from Roche (Ref:11965085001) in a 1:2000 dilution. […] Next, affinity tags were removed by incubating the purified proteins with recombinant His-tagged TEV protease, in a 1:50 ratio. The cleaved tag and the protease were separated from the ectodomains by a second Ni^2+ affinity step. Proteins were further purified by size-exclusion chromatography on a Superdex 200 Increase 10/300 GL column (GE Healthcare) equilibrated in 20 mM citric acid pH 5.0, 150 mM NaCl. Peak fractions containing the single proteins or complexes were concentrated using Amicon Ultra concentrators (Millipore, MWCO 10,000 for SERK1 and 30,000 for HAE, HSL1, and BAM1) and used for crystallization or biochemical experiments. Proteins were analyzed for purity and structural integrity by SDS-PAGE.
Experiments were performed at 25 °C using a MicroCal PEAQ-ITC (Malvern Instruments) with a 200 µL standard cell and a 40 μL titration syringe. HSL1, BAM1, and SERK1 proteins were gel-filtrated into the ITC buffer (20 mM sodium citrate pH 5.0, 150 mM NaCl). Molar protein concentrations for HSL1, BAM1, and SERK1 were calculated using their molar extinction coefficient and a molecular weight of 74,896 and 27,551 Da, respectively as previously determined. A typical experiment consisted of injecting 2 μL of a range between 75 and 600 μM solution of ligand into 10 to 30 μM HAE, HSL1, or BAM1 solution in the cell at 150 s intervals and 500 rpm stirring speed. The SERK1 vs HAE/HSL1-peptide experiments were performed by titrating 100 µM SERK1 in the cell, using the same injection pattern. ITC data were corrected for the heat of dilution by subtracting the mixing enthalpies for titrant solution injections into protein-free ITC buffer. Experiments were done in duplicates or triplicates, otherwise specified, and data were analyzed using the MicroCal PEAQ-ITC Analysis Software provided by the manufacturer. […] The N values were fitted to 1 in the analysis.

[1] = biological target: T2, biotinylated HSL1 ectodomain with Avi-tag (Arabidopsis, UniProt Q9SGP2 17-618, biotin on the Avi-tag (BirA)); test: GCI
T2 chain: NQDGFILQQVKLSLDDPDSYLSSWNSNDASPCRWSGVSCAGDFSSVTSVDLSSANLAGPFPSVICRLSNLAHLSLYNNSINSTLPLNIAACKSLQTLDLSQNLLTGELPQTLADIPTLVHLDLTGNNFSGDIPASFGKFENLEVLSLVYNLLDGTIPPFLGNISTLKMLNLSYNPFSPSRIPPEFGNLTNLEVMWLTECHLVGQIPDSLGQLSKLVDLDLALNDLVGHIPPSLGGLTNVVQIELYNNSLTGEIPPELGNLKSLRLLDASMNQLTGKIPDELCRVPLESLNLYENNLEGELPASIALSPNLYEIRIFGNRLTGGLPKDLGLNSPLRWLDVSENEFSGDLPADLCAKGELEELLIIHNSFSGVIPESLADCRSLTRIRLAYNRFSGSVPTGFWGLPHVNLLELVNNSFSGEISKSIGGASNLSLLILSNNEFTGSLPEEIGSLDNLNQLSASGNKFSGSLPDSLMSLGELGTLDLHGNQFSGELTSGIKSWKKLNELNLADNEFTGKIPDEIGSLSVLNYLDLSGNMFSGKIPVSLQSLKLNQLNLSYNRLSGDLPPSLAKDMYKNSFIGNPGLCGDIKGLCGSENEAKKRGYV

[2] = biological target: T2, biotinylated HSL1 ectodomain with …
[3] = biological target: T2, biotinylated HSL1 ectodomain with …; test: GCI
[4] = biological target: T3, HSL1 (HAESA-LIKE 1) ectodomain (Arabidopsis, UniProt Q9SGP2 17-618); test: ITC
T3 chain: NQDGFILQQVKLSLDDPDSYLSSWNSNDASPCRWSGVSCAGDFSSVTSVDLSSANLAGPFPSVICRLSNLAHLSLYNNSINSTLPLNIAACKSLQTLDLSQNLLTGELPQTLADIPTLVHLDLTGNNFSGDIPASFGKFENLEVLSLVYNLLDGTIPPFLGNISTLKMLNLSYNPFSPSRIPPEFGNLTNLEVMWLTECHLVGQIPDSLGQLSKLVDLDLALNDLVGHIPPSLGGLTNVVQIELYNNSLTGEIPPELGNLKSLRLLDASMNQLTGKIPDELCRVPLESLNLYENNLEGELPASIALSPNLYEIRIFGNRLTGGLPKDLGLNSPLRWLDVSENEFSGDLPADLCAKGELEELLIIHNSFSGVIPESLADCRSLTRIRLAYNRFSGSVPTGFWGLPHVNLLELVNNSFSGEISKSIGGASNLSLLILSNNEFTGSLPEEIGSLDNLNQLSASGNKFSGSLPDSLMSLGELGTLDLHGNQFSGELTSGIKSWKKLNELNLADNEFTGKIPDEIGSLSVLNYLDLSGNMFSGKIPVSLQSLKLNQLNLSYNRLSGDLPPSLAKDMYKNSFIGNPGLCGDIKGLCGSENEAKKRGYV

[5] = biological target: T2, biotinylated HSL1 ectodomain with …

CC(C)C[C@H](NC(=O)[C@@H]1CCCN1C(=O)[C@H](CC(N)=O)NC(=O)[C@@H]1C[C@@H](O)CN1C(=O)CNC(=O)[C@H](CO)NC(=O)[C@@H]1CCCN1C(=O)[C@@H]1CCCN1C(=O)[C@H](CC(C)C)NC(=O)[C@@H](N)CCCNC(=N)N)C(=O)N[C@@H](Cc1c[nH]cn1)C(=O)N[C@@H](CC(N)=O)C(=O)O [CLE9^V111P] (H-RLPPSG[Hyp]NPLHN-OH)
ΔH, peptide vs BAM1 (BAM1 LRR ectodomain): -19 ± 8.3 kcal/mol

CC(C)C[C@H](NC(=O)[C@@H]1CCCN1)C(=O)N[C@H](C(=O)N1CCC[C@H]1C(=O)N[C@@H](CO)C(=O)NCC(=O)N1C[C@H](O)C[C@H]1C(=O)N[C@@H](CC(N)=O)C(=O)N1CCC[C@H]1C(=O)N[C@@H](CC(C)C)C(=O)N[C@@H](Cc1c[nH]cn1)C(=O)N[C@@H](CC(N)=O)C(=O)O)C(C)C [CLE9^R109P] (H-PLVPSG[Hyp]NPLHN-OH)
ΔH, peptide vs BAM1 (BAM1 LRR ectodomain): -26 ± 8 kcal/mol

CC[C@H](C)[C@H](NC(=O)[C@@H]1CCCN1)C(=O)N1CCC[C@H]1C(=O)N1CCC[C@H]1C(=O)N[C@@H](CO)C(=O)NCC(=O)N1C[C@H](O)C[C@H]1C(=O)N[C@@H](CC(N)=O)C(=O)N1CCC[C@H]1C(=O)N[C@@H](CC(C)C)C(=O)N[C@@H](Cc1c[nH]cn1)C(=O)N[C@@H](CC(N)=O)C(=O)O [CLE9^R109PL110IV111P] (H-PIPPSG[Hyp]NPLHN-OH)
Kd (dissociation constant), peptide vs BAM1 (BAM1 LRR ectodomain): non-detectable binding

CC(C)C[C@H](NC(=O)[C@@H](N)CCCNC(=N)N)C(=O)N[C@H](C(=O)N1CCC[C@H]1C(=O)N[C@@H](CO)C(=O)N[C@@H](C)C(=O)N1C[C@H](O)C[C@H]1C(=O)N[C@@H](CO)C(=O)N[C@@H](CCCCN)C(=O)N[C@@H](CCCNC(=N)N)C(=O)N[C@@H](Cc1c[nH]cn1)C(=O)N[C@@H](CC(N)=O)C(=O)O)C(C)C [IDA^P58RI59LP60V] (H-RLVPSA[Hyp]SKRHN-OH)
Kd (dissociation constant), peptide vs BAM1 (BAM1 LRR ectodomain): restore binding to BAM1

CC[C@H](C)[C@H](NC(=O)[C@@H]1CCCN1)C(=O)N[C@H](C(=O)N1CCC[C@H]1C(=O)N[C@@H](CO)C(=O)NCC(=O)N1C[C@H](O)C[C@H]1C(=O)N[C@@H](CC(N)=O)C(=O)N1CCC[C@H]1C(=O)N[C@@H](CC(C)C)C(=O)N[C@@H](Cc1c[nH]cn1)C(=O)N[C@@H](CC(N)=O)C(=O)O)C(C)C [CLE9^R109PL110I] (H-PIVPSG[Hyp]NPLHN-OH)
ΔH, peptide vs BAM1 (BAM1 LRR ectodomain): -27 ± 11 kcal/mol

CC(C)C[C@H](NC(=O)[C@@H]1CCCN1C(=O)[C@H](CC(N)=O)NC(=O)[C@@H]1C[C@@H](O)CN1C(=O)CNC(=O)[C@H](CO)NC(=O)[C@@H]1CCCN1C(=O)[C@@H]1CCCN1C(=O)[C@H](CC(C)C)NC(=O)[C@@H]1CCCN1)C(=O)N[C@@H](Cc1c[nH]cn1)C(=O)N[C@@H](CC(N)=O)C(=O)O [CLE9^R109PV111P] (H-PLPPSG[Hyp]NPLHN-OH)
ΔH, peptide vs BAM1 (BAM1 LRR ectodomain): -3.7 ± 0.4 kcal/mol

B1: IDL4 (IDA-LIKE 4) mature peptide (peptide)
chain: PVPASAPSRKHN
Kd [1]: 1850 nM | Kd [2]: 2700 nM and 1000 nM | koff [3]: 0.65 s⁻¹ | Kd [4]: 2020 nM | koff [5]: 0.52 s⁻¹ and 0.75 s⁻¹
